Test results from the Kinase Knowledgebase extract (Sharma et al. 2016).
Where “and” joins values, the source holds several entries; their conditions need not be identical. Equal values may be shown once.

Biological target: MAPK14 (UniProt Q16539)
Experiment: Inhibition of MAPK14 Kinase Activity

Sequence of MAPK14 (Q16539 whole entry, looked up): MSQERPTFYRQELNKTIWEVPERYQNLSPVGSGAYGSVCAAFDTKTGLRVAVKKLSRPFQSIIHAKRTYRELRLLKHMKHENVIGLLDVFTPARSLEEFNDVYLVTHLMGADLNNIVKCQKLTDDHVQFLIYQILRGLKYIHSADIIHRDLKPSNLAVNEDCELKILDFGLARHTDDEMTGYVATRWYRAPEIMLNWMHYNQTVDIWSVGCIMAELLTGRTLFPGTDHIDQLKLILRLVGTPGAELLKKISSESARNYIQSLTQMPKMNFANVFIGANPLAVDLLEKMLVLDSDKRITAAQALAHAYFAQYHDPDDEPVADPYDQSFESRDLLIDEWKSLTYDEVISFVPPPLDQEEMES

Structure (SMILES): COc1ccc(CNc2nccc(-c3[nH]c(-c4ccccc4)nc3-c3ccccc3)n2)cc1
- IC50: 38 nM

Structure (SMILES): C[C@H](Nc1nccc(-c2[nH]c(C3CCNCC3)nc2-c2cccc(C(F)(F)F)c2)n1)c1ccccc1
- IC50: 0.7 nM and 0.1 nM

Structure (SMILES): Oc1cccc(-c2nc(-c3ccccc3)[nH]c2-c2ccncc2)c1
- IC50: 141 nM

Structure (SMILES): Clc1cc(Cl)cc(-c2nc(-c3ccccc3)[nH]c2-c2ccncc2)c1
- IC50: 138 nM

Structure (SMILES): Nc1nccc(-c2[nH]c(-c3ccccc3)nc2-c2ccccc2)n1
- IC50: 38 nM

Structure (SMILES): C[C@@H](Nc1nccc(-c2[nH]c(C3CCNCC3)nc2-c2cccc(C(F)(F)F)c2)n1)c1ccccc1
- IC50: 0.9 nM

Structure (SMILES): COc1cccc(-c2nc(-c3ccccc3)[nH]c2-c2ccncc2)c1
- IC50: 549 nM

Structure (SMILES): CNc1nccc(-c2[nH]c(-c3ccccc3)nc2-c2ccccc2)n1
- IC50: 120 nM

Structure (SMILES): Nc1nccc(-c2[nH]c(C3CCNCC3)nc2-c2cccc(C(F)(F)F)c2)n1
- IC50: 7 nM

Structure (SMILES): Fc1ccc(-c2nc(C3CCNCC3)[nH]c2-c2ccncc2)cc1
- IC50: 8 nM

Structure (SMILES): c1ccc(-c2ccc(-c3nc(-c4ccccc4)[nH]c3-c3ccncc3)cc2)cc1
- IC50: 1000 nM

Structure (SMILES): c1ccc(-c2nc(-c3ccccc3)c(-c3ccncc3)[nH]2)cc1
- IC50: 181 nM

Structure (SMILES): Fc1ccc(-c2nc[nH]c2-c2ccncc2)cc1
- IC50: 169 nM

Structure (SMILES): Clc1ccc(-c2nc(-c3ccccc3)[nH]c2-c2ccncc2)cc1Cl
- IC50: 28 nM

Structure (SMILES): N#Cc1ccc(-c2nc(-c3ccccc3)[nH]c2-c2ccncc2)cc1
- IC50: 977 nM

Structure (SMILES): Clc1ccc(-c2nc(-c3ccccc3)[nH]c2-c2ccncc2)cc1
- IC50: 47 nM

Structure (SMILES): FC(F)(F)c1ccc(-c2nc(-c3ccccc3)[nH]c2-c2ccncc2)cc1
- IC50: 199 nM

Structure (SMILES): COc1ccc(CNc2nccc(-c3[nH]c(C4CCNCC4)nc3-c3cccc(C(F)(F)F)c3)n2)cc1
- IC50: 7 nM

Structure (SMILES): COc1ccc(-c2nc(-c3ccccc3)[nH]c2-c2ccncc2)cc1
- IC50: 301 nM

Structure (SMILES): CC(C)c1nc(-c2ccccc2)[nH]c1-c1ccncc1
- IC50: 2090 nM

Structure (SMILES): Fc1cccc(-c2nc(-c3ccccc3)[nH]c2-c2ccncc2)c1
- IC50: 489 nM

Structure (SMILES): Clc1ccccc1-c1nc(-c2ccccc2)[nH]c1-c1ccncc1
- IC50: 151 nM

Structure (SMILES): FC(F)(F)c1cccc(-c2nc(-c3ccccc3)[nH]c2-c2ccncc2)c1
- IC50: 85 nM

Structure (SMILES): Clc1cccc(-c2nc(-c3ccccc3)[nH]c2-c2ccncc2)c1
- IC50: 128 nM

Structure (SMILES): Oc1ccc(-c2nc(-c3ccccc3)[nH]c2-c2ccncc2)cc1
- IC50: 1410 nM

Structure (SMILES): c1ccc(-c2nc(-c3ccccc3)c(-c3ccncn3)[nH]2)cc1
- IC50: 707 nM

Structure (SMILES): Fc1ccc(-c2nc(C3CCCCC3)[nH]c2-c2ccncc2)cc1
- IC50: 70 nM
